Reference: patent US20120029187A1, “HALOALKYLSULFONANILIDE DERIVATIVE” (Nissan Chemical Industries, Ltd., priority 2009, published 2012)

Key:
Assay type in all cases: in vivo
[1] = system: barnyardgrass; assay: Test Example 1: herbicidal effects in preemergence treatment under submerged conditions; conditions: dose 2.52 g/a
Outline: (§1)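 Scoring 0 (<5% mortality) to 5 (≥90%) was done three weeks after preemergence application to the water surface of submerged (4 cm) alluvial soil, doses given as g per are. Weeds were seeded and 2.5-leaf rice transplanted on the treatment day; greenhouse at 25–30 °C.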

[2] = system: bulrush; assay: as above; conditions: dose 2.52 g/a
Outline: as §1

[3] = system: ducksalad; assay: as above; conditions: dose 2.52 g/a
Outline: as §1

[4] = system: transplanted rice; assay: Test Example 1: preemergence treatment under submerged conditions, effect on crop; conditions: dose 2.52 g/a
Outline: as §1

[5] = system: barnyardgrass; assay: Test Example 2: herbicidal effects during the vegetation period under submerged conditions; conditions: treatment during the vegetation period under submerged conditions; dose 2.52 g/a
Outline: (§2)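 Barnyardgrass, bulrush and ducksalad were co-sown in alluvial soil flooded to 4 cm and grown in a greenhouse at 25 to 30° C. At the 1- or 2-leaf stage, water-diluted emulsifiable concentrates went onto the water surface at set doses (g/a). Herbicidal effect was scored three weeks later on a graded scale.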

[6] = system: bulrush; assay: as above; conditions: treatment during the vegetation period under submerged conditions; dose 2.52 g/a
Outline: as §2

[7] = system: ducksalad; assay: as above; conditions: treatment during the vegetation period under submerged conditions; dose 2.52 g/a
Outline: as §2

[8] = system: Italian ryegrass; assay: Test Example 3: herbicidal effects in soil treatment; conditions: dose 3.2 g/a
Outline: (§3)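 Seeds were sown in sterilized diluvial soil and covered with about 1.5 cm of soil. Compounds, formulated as emulsifiable concentrates and diluted with water, were sprayed evenly over the soil surface at set doses in g/a. Herbicidal effect was scored on a rating scale three weeks later.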

[9] = system: barnyardgrass; assay: as above; conditions: dose 3.2 g/a
Outline: as §3

[10] = system: beadstraw; assay: as above; conditions: dose 3.2 g/a
Outline: as §3

[11] = system: common chickweed; assay: as above; conditions: dose 3.2 g/a
Outline: as §3

[12] = system: common lambsquater; assay: as above; conditions: dose 3.2 g/a
Outline: as §3

[13] = system: common ragweed; assay: as above; conditions: dose 3.2 g/a
Outline: as §3

[14] = system: giant foxtail; assay: as above; conditions: dose 3.2 g/a
Outline: as §3

[15] = system: large crabgrass; assay: as above; conditions: dose 3.2 g/a
Outline: as §3

[16] = system: posumbu knotweed; assay: as above; conditions: dose 3.2 g/a
Outline: as §3

[17] = system: redroot pigweed; assay: as above; conditions: dose 3.2 g/a
Outline: as §3

[18] = system: velvetleaf; assay: as above; conditions: dose 3.2 g/a
Outline: as §3

[19] = system: water foxtail; assay: as above; conditions: dose 3.2 g/a
Outline: as §3

[20] = system: Italian ryegrass; assay: Test Example 4: herbicidal effect in foliage treatment; conditions: dose 3.2 g/a, three weeks after the application
Outline: (§4)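 Visual herbicidal scores on a graded scale were recorded three weeks after foliar application. Compounds went on as diluted emulsifiable concentrates at predetermined g/a to plants grown 14 days in a 25 to 30° C greenhouse.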

[21] = system: barnyardgrass; assay: as above; conditions: dose 3.2 g/a, three weeks after the application
Outline: as §4

[22] = system: beadstraw; assay: as above; conditions: dose 3.2 g/a, three weeks after the application
Outline: as §4

[23] = system: common chickweed; assay: as above; conditions: dose 3.2 g/a, three weeks after the application
Outline: as §4

[24] = system: common lambsquater; assay: as above; conditions: dose 3.2 g/a, three weeks after the application
Outline: as §4

[25] = system: common ragweed; assay: as above; conditions: dose 3.2 g/a, three weeks after the application
Outline: as §4

[26] = system: giant foxtail; assay: as above; conditions: dose 3.2 g/a, three weeks after the application
Outline: as §4

[27] = system: large crabgrass; assay: as above; conditions: dose 3.2 g/a, three weeks after the application
Outline: as §4

[28] = system: posumbu knotweed; assay: as above; conditions: dose 3.2 g/a, three weeks after the application
Outline: as §4

[29] = system: redroot pigweed; assay: as above; conditions: dose 3.2 g/a, three weeks after the application
Outline: as §4

[30] = system: velvetleaf; assay: as above; conditions: dose 3.2 g/a, three weeks after the application
Outline: as §4

[31] = system: water foxtail; assay: as above; conditions: dose 3.2 g/a, three weeks after the application
Outline: as §4

Question: `CCC1CON(Cc2ccccc2NS(=O)(=O)C(F)(F)F)C(=O)O1` (centres unmarked) [III-5] was tested. Which “A: barnyardgrass, herbicidal effect (evaluation scale 0-5)” value [1] did it give?
Answer: Its value is 5 (mortality of 90% or above (nearly complete death)).

Question: What about the “B: bulrush, herbicidal effect (evaluation scale 0-5)” value (“B: bulrush, herbicidal effect” below) [2] of the same compound?
Answer: Its value is 5 (mortality of 90% or above (nearly complete death)).

Question: What about the “C: ducksalad, herbicidal effect (evaluation scale 0-5)” value (shortened to “C: ducksalad, herbicidal effect”) [3] of the same compound?
Answer: The value was 5 (mortality of 90% or above (nearly complete death)).

Question: And the “a: transplanted rice, effect on crop (evaluation scale 0-5)” value [4]?
Answer: Its value is 0 (mortality of less than 5% (almost ineffective)).

Question: What about the “A: barnyardgrass, herbicidal effect (evaluation scale 0-5)” value [5] of the same compound?
Answer: Its value is 5 (mortality of 90% or above (nearly complete death)).

Question: What about the “B: bulrush, herbicidal effect” value [6] of the same compound?
Answer: The value was 5 (mortality of 90% or above (nearly complete death)).

Question: And the “C: ducksalad, herbicidal effect” value [7]?
Answer: Its value is 5 (mortality of 90% or above (nearly complete death)).

Question: What about the “herbicidal effect, H: Italian ryegrass” value [8] of the same compound?
Answer: Its value is 5 (mortality of 90% or above (nearly complete death)).

Question: What about the “herbicidal effect, A: barnyardgrass” value [9] of the same compound?
Answer: Its value is 5 (mortality of 90% or above (nearly complete death)).

Question: And the “herbicidal effect, O: beadstraw” value [10]?
Answer: The value was 4 (mortality of at least 70% and less than 90%).

Question: And the “herbicidal effect, N: common chickweed” value [11]?
Answer: Its value is 5 (mortality of 90% or above (nearly complete death)).

Question: And the “herbicidal effect, L: common lambsquater” value [12]?
Answer: The value was 5 (mortality of 90% or above (nearly complete death)).

Question: And the “herbicidal effect, J: common ragweed” value [13]?
Answer: The value was 4 (mortality of at least 70% and less than 90%).

Question: And the “herbicidal effect, E: giant foxtail” value [14]?
Answer: The value was 5 (mortality of 90% or above (nearly complete death)).

Question: And the “herbicidal effect, D: large crabgrass” value [15]?
Answer: The value was 5 (mortality of 90% or above (nearly complete death)).

Question: And the “herbicidal effect, M: posumbu knotweed” value [16]?
Answer: Its value is 4 (mortality of at least 70% and less than 90%).

Question: What about the “herbicidal effect, K: redroot pigweed” value [17] of the same compound?
Answer: Its value is 0 (mortality of less than 5% (almost ineffective)).

Question: What about the “herbicidal effect, I: velvetleaf” value [18] of the same compound?
Answer: The value was 5 (mortality of 90% or above (nearly complete death)).

Question: And the “herbicidal effect, G: water foxtail” value [19]?
Answer: The value was 5 (mortality of 90% or above (nearly complete death)).

Question: And the “H: Italian ryegrass, herbicidal effect” value [20]?
Answer: The value was 1 (mortality of at least 5% and less than 20%).

Question: What about the “A: barnyardgrass, herbicidal effect” value [21] of the same compound?
Answer: Its value is 5 (mortality of 90% or above (nearly complete death)).

Question: And the “O: beadstraw, herbicidal effect” value [22]?
Answer: The value was 3 (mortality of at least 40% and less than 70%).

Question: What about the “N: common chickweed, herbicidal effect” value [23] of the same compound?
Answer: Its value is 3 (mortality of at least 40% and less than 70%).

Question: And the “L: common lambsquater, herbicidal effect” value [24]?
Answer: Its value is 3 (mortality of at least 40% and less than 70%).

Question: What about the “J: common ragweed, herbicidal effect” value [25] of the same compound?
Answer: Its value is 4 (mortality of at least 70% and less than 90%).

Question: What about the “E: giant foxtail, herbicidal effect” value [26] of the same compound?
Answer: Its value is 3 (mortality of at least 40% and less than 70%).

Question: And the “D: large crabgrass, herbicidal effect” value [27]?
Answer: Its value is 0 (mortality of less than 5% (almost ineffective)).

Question: And the “M: posumbu knotweed, herbicidal effect” value [28]?
Answer: Its value is 0 (mortality of less than 5% (almost ineffective)).

Question: What about the “K: redroot pigweed, herbicidal effect” value [29] of the same compound?
Answer: The value was 0 (mortality of less than 5% (almost ineffective)).

Question: And the “I: velvetleaf, herbicidal effect” value [30]?
Answer: Its value is 3 (mortality of at least 40% and less than 70%).

Question: What about the “G: water foxtail, herbicidal effect” value [31] of the same compound?
Answer: The value was 5 (mortality of 90% or above (nearly complete death)).

Question: Which “A: barnyardgrass, herbicidal effect (evaluation scale 0-5)” value [1] does the source give for `CCOC(=O)N(c1ccccc1CN1OCC(CC)OC1=O)S(=O)(=O)C(F)(F)F` (centres unmarked) [III-6] here?
Answer: The value was 5 (mortality of 90% or above (nearly complete death)).

Question: What about the “B: bulrush, herbicidal effect” value [2] of the same compound?
Answer: Its value is 5 (mortality of 90% or above (nearly complete death)).

Question: What about the “C: ducksalad, herbicidal effect” value [3] of the same compound?
Answer: Its value is 5 (mortality of 90% or above (nearly complete death)).

Question: What about the “a: transplanted rice, effect on crop (evaluation scale 0-5)” value [4] of the same compound?
Answer: The value was 0 (mortality of less than 5% (almost ineffective)).

Question: And the “A: barnyardgrass, herbicidal effect (evaluation scale 0-5)” value [5]?
Answer: Its value is 5 (mortality of 90% or above (nearly complete death)).

Question: What about the “B: bulrush, herbicidal effect” value [6] of the same compound?
Answer: The value was 5 (mortality of 90% or above (nearly complete death)).

Question: And the “C: ducksalad, herbicidal effect” value [7]?
Answer: Its value is 5 (mortality of 90% or above (nearly complete death)).

Question: What about the “herbicidal effect, H: Italian ryegrass” value [8] of the same compound?
Answer: Its value is 5 (mortality of 90% or above (nearly complete death)).

Question: What about the “herbicidal effect, A: barnyardgrass” value [9] of the same compound?
Answer: The value was 5 (mortality of 90% or above (nearly complete death)).

Question: And the “herbicidal effect, O: beadstraw” value [10]?
Answer: The value was 4 (mortality of at least 70% and less than 90%).

Question: And the “herbicidal effect, N: common chickweed” value [11]?
Answer: The value was 5 (mortality of 90% or above (nearly complete death)).

Question: What about the “herbicidal effect, L: common lambsquater” value [12] of the same compound?
Answer: Its value is 4 (mortality of at least 70% and less than 90%).

Question: And the “herbicidal effect, J: common ragweed” value [13]?
Answer: The value was 4 (mortality of at least 70% and less than 90%).

Question: What about the “herbicidal effect, E: giant foxtail” value [14] of the same compound?
Answer: The value was 4 (mortality of at least 70% and less than 90%).

Question: What about the “herbicidal effect, D: large crabgrass” value [15] of the same compound?
Answer: The value was 5 (mortality of 90% or above (nearly complete death)).

Question: And the “herbicidal effect, M: posumbu knotweed” value [16]?
Answer: Its value is 5 (mortality of 90% or above (nearly complete death)).

Question: What about the “herbicidal effect, K: redroot pigweed” value [17] of the same compound?
Answer: The value was 3 (mortality of at least 40% and less than 70%).

Question: And the “herbicidal effect, I: velvetleaf” value [18]?
Answer: The value was 5 (mortality of 90% or above (nearly complete death)).

Question: What about the “herbicidal effect, G: water foxtail” value [19] of the same compound?
Answer: Its value is 5 (mortality of 90% or above (nearly complete death)).

Question: And the “H: Italian ryegrass, herbicidal effect” value [20]?
Answer: Its value is 2 (mortality of at least 20% and less than 40%).

Question: What about the “A: barnyardgrass, herbicidal effect” value [21] of the same compound?
Answer: Its value is 5 (mortality of 90% or above (nearly complete death)).

Question: What about the “O: beadstraw, herbicidal effect” value [22] of the same compound?
Answer: The value was 3 (mortality of at least 40% and less than 70%).

Question: What about the “N: common chickweed, herbicidal effect” value [23] of the same compound?
Answer: Its value is 4 (mortality of at least 70% and less than 90%).

Question: What about the “L: common lambsquater, herbicidal effect” value [24] of the same compound?
Answer: Its value is 3 (mortality of at least 40% and less than 70%).

Question: And the “J: common ragweed, herbicidal effect” value [25]?
Answer: The value was 4 (mortality of at least 70% and less than 90%).

Question: What about the “E: giant foxtail, herbicidal effect” value [26] of the same compound?
Answer: Its value is 5 (mortality of 90% or above (nearly complete death)).

Question: And the “D: large crabgrass, herbicidal effect” value [27]?
Answer: The value was 3 (mortality of at least 40% and less than 70%).

Question: What about the “M: posumbu knotweed, herbicidal effect” value [28] of the same compound?
Answer: The value was 5 (mortality of 90% or above (nearly complete death)).

Question: What about the “K: redroot pigweed, herbicidal effect” value [29] of the same compound?
Answer: Its value is 4 (mortality of at least 70% and less than 90%).

Question: And the “I: velvetleaf, herbicidal effect” value [30]?
Answer: The value was 3 (mortality of at least 40% and less than 70%).

Question: And the “G: water foxtail, herbicidal effect” value [31]?
Answer: The value was 5 (mortality of 90% or above (nearly complete death)).
